Experimental findings from patent US20130303532A1, “IMIDAZOPYRAZINES FOR USE AS MPS-1 AND TKK INHIBITORS IN THE TREATMENT HYPERPROLIFERATIVE DISORDERS” (BAYER INTELLECTUAL PROPERTY GmbH, priority 2010, published 2013) are described below.

One experiment deals with T1, human kinase Mps-1 (Homo sapiens, UniProt P33981).
T1 construct: N-terminally GST-tagged human full length recombinant Mps-1 kinase; GST (N); purchased Invitrogen, Karslruhe, Germany PV4071
T1 sequence (P33981 1-857): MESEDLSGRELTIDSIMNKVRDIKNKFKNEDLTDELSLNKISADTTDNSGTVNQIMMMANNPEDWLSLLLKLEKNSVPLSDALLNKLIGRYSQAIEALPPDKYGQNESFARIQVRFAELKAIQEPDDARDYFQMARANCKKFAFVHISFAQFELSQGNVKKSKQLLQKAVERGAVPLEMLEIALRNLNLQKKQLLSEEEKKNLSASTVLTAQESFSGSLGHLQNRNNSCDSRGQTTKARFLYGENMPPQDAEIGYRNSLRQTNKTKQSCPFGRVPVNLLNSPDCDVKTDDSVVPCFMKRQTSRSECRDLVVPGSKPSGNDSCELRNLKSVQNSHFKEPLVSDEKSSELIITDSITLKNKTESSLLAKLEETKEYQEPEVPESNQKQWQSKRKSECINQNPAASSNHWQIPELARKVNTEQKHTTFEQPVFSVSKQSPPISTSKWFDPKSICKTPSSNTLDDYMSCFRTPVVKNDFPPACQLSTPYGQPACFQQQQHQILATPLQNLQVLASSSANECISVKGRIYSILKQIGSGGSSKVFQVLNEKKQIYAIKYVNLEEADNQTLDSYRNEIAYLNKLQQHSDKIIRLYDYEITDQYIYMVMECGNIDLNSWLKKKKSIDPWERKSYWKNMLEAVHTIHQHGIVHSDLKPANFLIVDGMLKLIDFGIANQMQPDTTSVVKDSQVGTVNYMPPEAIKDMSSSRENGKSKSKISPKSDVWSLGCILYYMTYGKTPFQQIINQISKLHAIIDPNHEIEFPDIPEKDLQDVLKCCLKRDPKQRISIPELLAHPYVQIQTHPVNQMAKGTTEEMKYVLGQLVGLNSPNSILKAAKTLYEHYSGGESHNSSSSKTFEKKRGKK
Nature of the experiment: Mps-1 kinase assay (TR-FRET). It counts as biochemical. The following applies: Mps1 IC50 [nM], N-terminally GST-tagged human full length recombinant Mps-1; 10 μM ATP; 1 μM biotinylated peptide substrate; 60 min at 22° C. (Time-resolved FRET reads energy transfer from a long-lived donor to a nearby acceptor.)
As to `Cc1cc(-c2cnc3c(NCCCO)nccn23)ccc1C(=O)NC1CC1` [Example 7-104, N-cyclopropyl-4-{8-[(3-hydroxypropyl)amino]imi-dazo[1,2-a]pyrazin-3-yl}-2-methylbenzamide], the IC50 (commonly the concentration needed to halve the response being measured) came to 124 nM.

Turning to `CC(=O)NCCNc1nccn2c(-c3ccc(C(=O)NC4CC4)c(C)c3)cnc12` [Example 7-106], the IC50 is 1470 nM.

For the compound `Cc1cc(-c2cnc3c(NCc4cccnc4)nccn23)ccc1C(=O)NC1CC1` [Example 7-108, N-cyclopropyl-2-methyl-4-{8-[(pyridin-3-ylmethyl)amino]imi-dazo[1,2-a]pyrazin-3-yl}benzamide], the IC50 is 123 nM.

For `Cc1cc(-c2cnc3c(NCc4ccncc4)nccn23)ccc1C(=O)NC1CC1` [Example 7-109, N-cyclopropyl-2-methyl-4-{8-[(pyridin-4-ylmethyl)amino]imi-dazo[1,2-a]pyrazin-3-yl}benzamide], the IC50 turned out to be 166 nM.

For the compound `Cc1cc(-c2cnc3c(NCc4ccco4)nccn23)ccc1C(=O)NC1CC1` [Example 7-110, N-cyclopropyl-4-{8-[(furan-2-ylmethyl)amino]imi-dazo[1,2-a]pyrazin-3-yl}-2-methylbenzamide], the IC50 was 28.1 nM.

As to `Cc1cc(-c2cnc3c(NCCC#N)nccn23)ccc1C(=O)NC1CC1` [Example 7-111, 4-{8-[(2-cyanoethyl)amino]imi-dazo[1,2-a]pyrazin-3-yl}-N-cyclopropyl-2-methylbenzamide], the IC50 turned out to be 49.7 nM.

For `Cc1cc(-c2cnc3c(NCC(O)C(F)(F)F)nccn23)ccc1C(=O)NC1CC1` (centres unmarked) [Example 7-113, N-cyclopropyl-2-methyl-4-{8-[(3,3,3-trifluoro-2-hydroxypropyl)amino]imi-dazo[1,2-a]pyrazin-3-yl}benzamide], the IC50 was 36.7 nM.

`Cc1cc(-c2cnc3c(NCC(C)O)nccn23)ccc1C(=O)NC1CC1` (centres unmarked) [Example 7-115, N-cyclopropyl-4-{8-[(2-hydroxypropyl)amino]imi-dazo[1,2-a]pyrazin-3-yl}-2-methylbenzamide]: the IC50 is 101 nM.

Turning to `COCCCNc1nccn2c(-c3ccc(C(=O)NC4CC4)c(C)c3)cnc12` [Example 7-116, N-cyclopropyl-4-{8-[(3-methoxypropyl)amino]imi-dazo[1,2-a]pyrazin-3-yl}-2-methylbenzamide], the concentration for half-maximal inhibition (IC50) was 141 nM.

`Cc1cc(-c2cnc3c(NCC(F)F)nccn23)ccc1C(=O)NC1CC1` [Example 7-118, N-cyclopropyl-4-{8-[(2,2-difluoroethyl)amino]imi-dazo[1,2-a]pyrazin-3-yl}-2-methylbenzamide]: the IC50 is 70.3 nM.

With `Cc1cc(-c2cnc3c(NCc4ccn(C)n4)nccn23)ccc1C(=O)NC1CC1` [Example 7-119, N-cyclopropyl-2-methyl-4-(8-{[(1-methyl-1H-pyrazol-3-yl)methyl]amino}imi-dazo[1,2-a]pyrazin-3-yl)benzamide], the IC50 was determined as 298 nM.

For `Cc1cc(-c2cnc3c(NCc4cnn(C)c4)nccn23)ccc1C(=O)NC1CC1` [Example 7-120, N-cyclopropyl-2-methyl-4-(8-{[(1-methyl-1H-pyrazol-4-yl)methyl]amino}imi-dazo[1,2-a]pyrazin-3-yl)benzamide], the IC50 was found to be 93.4 nM.

For the compound `CCOC(C)CNc1nccn2c(-c3ccc(C(=O)NC4CC4)c(C)c3)cnc12` (centres unmarked) [Example 7-121, N-cyclopropyl-4-{8-[(2-ethoxypropyl)amino]imi-dazo[1,2-a]pyrazin-3-yl}-2-methylbenzamide], the IC50 is 154 nM.

On to `Cc1cc(-c2cnc3c(NCC(C)(C)O)nccn23)ccc1C(=O)NC1CC1` [Example 7-122, N-cyclopropyl-4-{8-[(2-hydroxy-2-methylpropyl)amino]imi-dazo[1,2-a]pyrazin-3-yl}-2-methylbenzamide], for which the IC50 is 171 nM.

Regarding `Cc1cc(-c2cnc3c(NCc4ccc(Cl)s4)nccn23)ccc1C(=O)NC1CC1` [Example 7-123, 4-(8-{[(5-chlorothiophen-2-yl)methyl]amino}imi-dazo[1,2-a]pyrazin-3-yl)-N-cyclopropyl-2-methylbenzamide], the IC50 was found to be 22.5 nM.

Take `Cc1cc(-c2cnc3c(NCC4CCCCO4)nccn23)ccc1C(=O)NC1CC1` (centres unmarked) [Example 7-124, N-cyclopropyl-2-methyl-4-{8-[(tetrahydro-2H-pyran-2-ylmethyl)amino]imi-dazo[1,2-a]pyrazin-3-yl}benzamide]: the IC50 came out at 80.8 nM.

In the case of `Cc1cc(-c2cnc3c(NC[C@@H](O)CO)nccn23)ccc1C(=O)NC1CC1` [Example 7-125, N-cyclopropyl-4-{8-[(2,3-dihydroxypropyl)amino]imi-dazo[1,2-a]pyrazin-3-yl}-2-methylbenzamide], the IC50 amounted to 361 nM.

With `Cc1cc(-c2cnc3c(NCc4c(F)cccc4F)nccn23)ccc1C(=O)NC1CC1` [Example 7-127, N-cyclopropyl-4-{8-[(2,6-difluorobenzyl)amino]imi-dazo[1,2-a]pyrazin-3-yl}-2-methylbenzamide], the half-inhibitory concentration (IC50) is 47.1 nM.

`COc1cc(C(=O)NC2CC2)ccc1-c1cnc2c(NCC(C)C)nccn12` [Example 7-128, N-cyclopropyl-3-methoxy-4-{8-[(2-methylpropyl)amino]imi-dazo[1,2-a]pyrazin-3-yl}benzamide]: the IC50 is 19.3 nM.

Staying with this experiment, now noted: N-terminally GST-tagged human full length recombinant Mps-1; 10 μM ATP; 1 μM biotinylated peptide substrate; 60 min at 22° C.; read-out: Mps1 IC50.
For `CCCCNc1nccn2c(-c3ccc(C(=O)NC4CC4)c(C)c3)cnc12` [Example 7-105, 4-[8-(butylamino)imidazo[1,2-a]pyrazin-3-yl]-N-cyclopropyl-2-methylbenzamide], the IC50 is 18.5 nM.

As to `Cc1cc(-c2cnc3c(NCC4CC4)nccn23)ccc1C(=O)NC1CC1` [Example 7-107, N-cyclopropyl-4-{8-[(cyclopropylmethyl)ami-no]imidazo[1,2-a]pyrazin-3-yl}-2-methylbenzamide], the IC50 was 18.8 nM.

In the case of `Cc1cc(-c2cnc3c(NCC(F)(F)C(F)(F)F)nccn23)ccc1C(=O)NC1CC1` [Example 7-112, N-cyclopropyl-2-methyl-4-{8-[(2,2,3,3,3-pentafluoropropyl)ami-no]imidazo[1,2-a]pyrazin-3-yl}benzamide], the IC50 is 81.6 nM.

As to `Cc1cc(-c2cnc3c(NCCCNC(=O)OC(C)(C)C)nccn23)ccc1C(=O)NC1CC1` [Example 7-117, tert-butyl [3-({3-[4-(cyclopropylcarbamoyl)-3-methylphenyl]imidazo[1,2-a]pyrazin-8-yl}amino)propyl]carbamate], the IC50 turned out to be 196 nM.
